According to ChEMBL document CHEMBL5356971, “Optimization of the Antibacterial Spectrum and the Developability Profile of the Novel-Class Natural Product Corramycin” (J Med Chem, 2023):

Columns and labels:
[1] = Metabolic stability in mouse lung assessed as parent compound remaining measured after 4 hrs by UPLC-MS analysis; type: ADME, tissue-based; conditions: mouse lung, read-out: Stability
Acinetobacter baumannii = assay: Antibacterial activity against Acinetobacter baumannii ATCC 19606 assessed as reduction in microbial growth incubated for 20 to 22 hrs by CLSI based analysis; type: functional; conditions: time 20-22 hrs
[2] = Metabolic stability in mouse kidney assessed as parent compound remaining measured after 1 hrs by UPLC-MS analysis; type: ADME, tissue-based; conditions: read-out: Stability
[3] = Metabolic stability in mouse lung assessed as parent compound remaining measured after 1 hrs by UPLC-MS analysis; type: ADME, tissue-based; conditions: mouse lung, read-out: Stability
Escherichia coli [4] = assay: Antibacterial activity against Escherichia coli ATCC 35218 infected in Swiss albino mouse model of Septicaemia infection assessed as log reduction in Septicaemia in blood at 10 mg/kg , iv preincubated for 4 hrs followed by bacterial infection and measured after 4 hrs post infection; type: functional; conditions: time 8 hrs
Escherichia coli [5] = assay: Antibacterial activity against Escherichia coli ATCC 35218 assessed as reduction in microbial growth incubated for 20 to 22 hrs by CLSI based analysis; type: functional; conditions: time 20-22 hrs
[6] = Metabolic stability in mouse kidney assessed as parent compound remaining measured after 4 hrs by UPLC-MS analysis; type: ADME, tissue-based; conditions: read-out: Stability
Klebsiella pneumoniae = assay: Antibacterial activity against Klebsiella pneumoniae ATCC 13883 assessed as reduction in microbial growth incubated for 20 to 22 hrs by CLSI based analysis; type: functional; conditions: time 20-22 hrs

remaining at 4 h [1]: 104%
MIC (Acinetobacter baumannii): > 32 µg/mL
remaining at 1 h [2]: 104%
remaining at 1 h [3]: 105%
MIC (Escherichia coli [5]): 2 µg/mL
remaining at 4 h [6]: 72%
MIC (Klebsiella pneumoniae): 2 µg/mL
Structure (SMILES): CO[C@@H](CNC(=O)[C@H](NC(=O)[C@H](O)[C@H](C)O)[C@H](O)c1cncn1C)[C@H](O)[C@H](O)C(=O)N(C)[C@@H](Cc1ccccc1)C(=O)NCC(=O)N[C@H](C(=O)N[C@@H](CO)C(=O)N[C@H](C(=O)N[C@H](C(=O)N[C@@H](CO)C(=O)O)C(C)(C)C)C(C)(C)O)C(C)(C)O
Activity (Escherichia coli [4]): -5.9 log10CFU
